For data set [1], the system named is Lewis Lung Carcinoma (LLC). The data set can be described thus: In vivo antitumor activity towards Lewis Lung Carcinoma (LLC) implanted i.m. in C57BL mice. More on the design: species or system mouse. Conditions: for Average tumor weight (mean ± S.D., g) / Inhibition of tumor growth (%): day 15. How it is done:
The schedule of HydroCuP administration in vivo was initially determined by assessing the total dose that could be injected without undue toxicity for different schedules in nontumor-bearing C57BL mice (data not shown). […] Three schedules of i.p. HydroCuP were administered: early treatment (days 3, 5, 7 and 9 after tumor inoculum), intermediate treatment (days 7–14) and late treatment with split-doses (days 9–11 with a loading dose and days 12–14 with a lower maintenance dose). […] Cisplatin treatment schedule was selected according to standard protocols designed to optimize its efficacy and minimize the occurrence of adverse events. For the early treatment, control mice received the vehicle (0.9% NaCl). HydroCuP was dosed at 25, 35 and 50 mg/kg i.p. on days 3, 5, 7, 9, 11 and 13 after tumor implantation. Cisplatin was dosed at 1.5 mg/kg i.p. on days 3, 5, 7, 9, 11 and 13 after tumor implantation.
The mice were purchased from Charles River, Italy, housed in steel cages under controlled environmental conditions (constant temperature, humidity, and 12 h dark/light cycle), and alimented with commercial standard feed and tap water ad libitum. The LLC cell line was purchased from ECACC, United Kingdom. The LLC cell line was maintained in DMEM (Euroclone, Pero, Italy) supplemented with 10% heat-inactivated foetal bovine serum (Euroclone, Pero, Italy), 10 mM L-glutamine, 100 U/mL penicillin, and 100 µg/mL streptomycin in a 5% CO2 air incubator at 37 °C. The LLC was implanted intramuscularly (i.m.) as a 2 × 10^6 cell inoculum into the right hind leg of 8-week old male and female C57BL mice (24 ± 3 g body weight). The antitumor activity of HydroCuP in LLC tumor model has been investigated by means of different schedules (early treatment, intermediate treatment and late treatment) and compared with that promoted by the reference metallodrug, CDDP. In the early-stage treatment, animals were treated at day 3, 5, 7, 9, 11 and 13 after the tumor cell inoculum with an i.p. injection of HydroCuP (25, 35 and 50 mg/kg), CDDP (1.5 mg/kg) or the vehicle solution (0.9% NaCl).
In the intermediate treatment, animals were treated after 7 days from tumor implantation (visible tumor) with daily i.p. doses of HydroCuP (30 and 50 mg/kg), CDDP (1.5 mg/kg) or the vehicle solution (0.9% NaCl). In the late treatment, animals were treated after 9 days from tumor implantation (palpable tumor) with i.p. doses of HydroCuP (50 mg/kg) from day 9 to day 11 and with i.p. doses of HydroCuP (30 mg/kg) from day 12 to day 14, or with daily doses of CDDP (1.5 mg/kg) or with the vehicle solution (0.9% NaCl). At day 15, animals were sacrificed, the legs were amputated at the proximal end of the femur, and the inhibition of tumor growth was determined according to the difference in weight of the tumor-bearing leg and the healthy leg of the animals expressed as a percentage referring to the control animals. Body weight was measured every 2 days and was taken as a parameter for systemic toxicity.

Data set [2] concerns LoVo colorectal oxaliplatin-resistant xenograft. Conditions: mouse, in vivo, ip, 30 mg/kg.
Procedure: (§1) To this aim, we developed the OXP-sensitive and OXP-resistant LoVo xenografts in BALB/c nu/nu mice. […] OXP-sensitive or OXP-resistant LoVo cells (1 × 10^7) were injected in the flank of mice. Once tumor was established (tumor volumes of about 0.4 cm^3, around 14 days after tumor inoculation), mice were randomly divided into six groups (6 animals per group, 8 controls). The HydroCuP-treated groups (6 mice each group) received daily 30 mg/kg by i.p. injection and the OXP-treated group was given 2 mg/kg by i.p. injection. At day 30, animals were sacrificed, and the inhibition of tumor growth was determined (Fig. 4, panel A). Measurements of body weights were recorded from day 14 every 2 days until the experimental endpoint (Fig. 4, panel B).
(§2) (A) LoVo and LoVo-OXP tumor xenografts in 6-week-old BALB/c nu/nu mice by injecting 1 × 10^7 tumor cells subcutaneously on the left dorsal flank. After 24 h from tumor implantation, mice randomly divided into six groups (6 animals per group). Chemotherapy delayed until day 14 (tumor volumes of about 0.4 cm^3). From day 14, HydroCuP dosed daily at 30 mg/kg i.p., OXP dosed daily at 2 mg/kg i.p. At day 30, animals sacrificed, and the inhibition of tumor growth determined by comparing the volume of the control group and the treatment group expressed as percentage referred to the control animals. Error bars indicate the S.D. *p < 0.05, **p < 0.01, with respect to control. […] Body weight was measured every two days and was taken as a parameter of systemic toxicity. The error bars indicate the S.D. **P < 0.01; *P < 0.05.
(§3) LoVo and LoVo-OXP tumor xenografts were established in 6-week-old BALB/c nu/nu mice by injecting 1 × 10^7 tumor cells subcutaneously (100 μL in serum free medium) on the left dorsal flank. After 24 h from tumor implantation, mice were randomly divided into six groups (6 animals per group, 8 controls). Chemotherapy was delayed until the tumor was about 0.4 cm^3 (day 14). From day 14, HydroCuP was dosed daily at 30 mg/kg i.p. whereas OXP was dosed daily at 2 mg/kg i.p. Measurements of body weights and tumor volumes were recorded from day 14 every 2 days until the experimental endpoint. The long axis (L) and the short axis (S) were measured with callipers, and the tumor volume (V) was calculated using the following equation: V = SxSxL/2. At day 30, animals were sacrificed, and the inhibition of tumor growth was determined by comparing the volume of the control group and the treatment group expressed as percentage referred to the control animals.
Data set [3] shares this test system. The data set can be described thus: In vivo activity toward LoVo-OXP (OXP-resistant) tumor xenograft in BALB/c nu/nu mice. The conditions noted are these: 30 mg/kg daily i.p. from day 14, day 30.
Procedure: as §1, §2, §3
Setting [4] is: Early treatment, 35 mg/kg i.p. days 3, 5, 7, 9, 11, 13.
Where [5] appears, read: Early treatment, 50 mg/kg i.p. days 3, 5, 7, 9, 11, 13.

Where “and” joins values, the source holds several entries; their conditions need not be identical. Identical values can stand only once. Bounds are passed on as bounds.

For `F[P-](F)(F)(F)(F)F.OC[P+](CO)(CO)[Cu-3]([P+](CO)(CO)CO)([P+](CO)(CO)CO)[P+](CO)(CO)CO` [HydroCuP, [Cu(thp)4][PF6]], the “Average tumor weight (mean ± S.D., g)” value in data set [1] (Early treatment, 25 mg/kg i.p. days 3, 5, 7, 9, 11, 13) was 0.473 ± 0.12 g; in data set [1] (setting [4]) it was 0.273 ± 0.04 g; in data set [1] (setting [5]), 0.113 ± 0.04 g; in data set [1] (Intermediate treatment, 30 mg/kg daily i.p. day 7-14) it was 0.088 ± 0.03 g; in data set [1] (Intermediate treatment, 50 mg/kg daily i.p. day 7-14), 0.071 ± 0.02 g; in data set [1] (Late treatment, 50 mg/kg (days 9-11) then 30 mg/kg (days 12-14) daily i.p.), 0.024 ± 0.03 g. Besides, the “Inhibition of tumor growth (%)” value was 26% and 25.86% in data set [1] (Early treatment, 25 mg/kg i.p. days 3, 5, 7, 9, 11, 13, 25 mg/kg); 57.21% in data set [1] (setting [4]); 82.28% in data set [1] (setting [5]); 82% and 82.37% in data set [1] (Intermediate treatment, 30 mg/kg daily i.p. day 7-14, 30 mg/kg); 85% and 85.85% in data set [1] (Intermediate treatment, 50 mg/kg daily i.p. day 7-14, 50 mg/kg). For the same compound, the Body weight changes entry in data set [1] (Early treatment, LLC-bearing C57BL mice, 15 days) is recorded as “did not induce significant body weight loss”. This compound also had a Body weight loss in data set [1] (Intermediate treatment, LLC-bearing C57BL mice) of less than 10%. Besides, the “Body weight changes / adverse effects” value in data set [1] (Late treatment, LLC-bearing C57BL mice) is reported as “did not induce any adverse effects including significant body weight loss”. In addition, the “Body weight and health vs control group” value in data set [2] is reported as “No significant difference in body weight”. Moreover, in data set [3], the “Inhibition of tumor growth (decrease in final tumor volume)” value is “about 65%”.

Values taken from publication PMC5655689, “Therapeutic potential of the phosphino Cu(I) complex (HydroCuP) in the treatment of solid tumors” (Scientific Reports, 2017).
